Measurements from ChEMBL document CHEMBL3992539, “Discovery of a series of N-(5-(quinolin-6-yl)pyridin-3-yl)benzenesulfonamides as PI3K/mTOR dual inhibitors” (Eur J Med Chem, 2017).
Active and inactive are the calls of the source. No cut-off for these calls is given here.

Legend:
PC-3 = test: Antiproliferative activity against human PC3 cells after 72 hrs by SRB assay; format: functional, cell-based; conditions: PC-3, 72 h
[1] = biological target: Phosphatidylinositol 4,5-bisphosphate 3-kinase catalytic subunit gamma isoform (Homo sapiens, UniProt P48736); test: Inhibition of recombinant full length His-tagged human PI3K p110gamma expressed in baculovirus expression system using PIP2 as substrate after 1 hr by ADP-Glo kinase assay
Mus musculus = test: Volume of distribution in mouse at 5 mg/kg, po by UPLC-MS/MS analysis; format: ADME, organism-based; conditions: in vivo
PI3K p110 beta/p85 alpha = PI3K p110 beta/p85 alpha (Homo sapiens, UniProt P42338); test: Inhibition of recombinant full length human N-terminal His6-tagged PI3K p110beta/p85alpha expressed in baculovirus infected Sf21 cells using PIP2 as substrate after 1 hr by ADP-Glo kinase assay
[2] = Mean residence time in mouse at 5 mg/kg, po by UPLC-MS/MS analysis; format: ADME, organism-based; conditions: in vivo
HCT-116 = test: Antiproliferative activity against human HCT116 cells after 72 hrs by SRB assay; format: functional, cell-based; conditions: HCT-116, 72 h
[3] = Terminal half life in mouse at 5 mg/kg, po by UPLC-MS/MS analysis; format: ADME, organism-based; conditions: in vivo, read-out: beta t1/2 (converted)
[4] = biological target: PI3-kinase p110-alpha/p85-alpha (Homo sapiens, UniProt P42336); test: Inhibition of PI3K p110alpha/p85alpha (unknown origin) using PIP2 as substrate after 1 hr by luminescent kinase-Glo assay; format: protein-complex assay
[5] = AUCt in mouse at 5 mg/kg, po by UPLC-MS/MS analysis; format: ADME, organism-based; conditions: in vivo
[6] = biological target: T1, Phosphatidylinositol 4,5-bisphosphate 3-kinase catalytic subunit delta isoform (Homo sapiens, UniProt O00329); test: Inhibition of PI3K p110delta (unknown origin) using PIP2 as substrate after 1 hr by ADP-Glo kinase assay
T1 sequence (O00329 whole entry): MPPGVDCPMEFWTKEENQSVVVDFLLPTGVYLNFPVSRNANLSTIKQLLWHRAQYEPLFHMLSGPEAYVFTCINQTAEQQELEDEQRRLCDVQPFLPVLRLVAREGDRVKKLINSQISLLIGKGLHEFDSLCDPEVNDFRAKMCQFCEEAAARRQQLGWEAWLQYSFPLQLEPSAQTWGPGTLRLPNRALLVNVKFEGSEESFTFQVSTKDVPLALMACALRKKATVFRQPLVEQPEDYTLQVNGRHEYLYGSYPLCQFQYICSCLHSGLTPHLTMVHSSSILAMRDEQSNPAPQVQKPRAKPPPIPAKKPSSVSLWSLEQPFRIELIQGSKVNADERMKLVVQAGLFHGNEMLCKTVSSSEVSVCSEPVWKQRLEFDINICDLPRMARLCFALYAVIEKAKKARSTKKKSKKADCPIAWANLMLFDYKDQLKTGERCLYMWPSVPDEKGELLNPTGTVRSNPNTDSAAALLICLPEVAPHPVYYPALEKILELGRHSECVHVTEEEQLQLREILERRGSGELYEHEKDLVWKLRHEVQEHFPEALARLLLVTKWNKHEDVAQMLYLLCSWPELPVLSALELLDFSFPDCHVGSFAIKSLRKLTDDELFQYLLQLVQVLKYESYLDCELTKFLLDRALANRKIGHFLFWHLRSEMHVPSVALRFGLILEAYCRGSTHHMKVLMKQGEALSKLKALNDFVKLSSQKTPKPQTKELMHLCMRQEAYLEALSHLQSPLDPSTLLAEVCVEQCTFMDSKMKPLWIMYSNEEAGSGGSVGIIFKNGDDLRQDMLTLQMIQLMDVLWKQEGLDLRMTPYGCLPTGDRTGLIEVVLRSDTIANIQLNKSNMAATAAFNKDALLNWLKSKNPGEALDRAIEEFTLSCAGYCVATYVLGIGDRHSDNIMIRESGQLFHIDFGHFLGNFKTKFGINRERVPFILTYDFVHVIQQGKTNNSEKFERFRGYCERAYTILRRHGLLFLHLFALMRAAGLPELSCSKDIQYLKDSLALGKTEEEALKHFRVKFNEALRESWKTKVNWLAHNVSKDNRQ

[7] = biological target: Serine/threonine-protein kinase mTOR (Homo sapiens, UniProt P42345); test: Inhibition of recombinant human N-terminal FLAG-tagged mTOR (1362-end residues) using ULight-4E-BP1 peptide substrate after 1 hr in presence of ATP by Lance Ultra assay
[8] = Plasma clearance in mouse at 5 mg/kg, po by UPLC-MS/MS analysis; format: ADME, organism-based
Homo sapiens = species: Homo sapiens; test: Inhibition of PI3K in PTEN null human PC3 cells assessed as reduction in Akt phosphorylation at Ser-473 residue at 100 nM after 3 hrs by Western blot method; format: cell-based
[9] = Cmax in mouse at 5 mg/kg, po by UPLC-MS/MS analysis; format: ADME, organism-based; set-up: dose 5 mg/kg, route oral; conditions: in vivo

Sequence of PI3-kinase p110-alpha/p85-alpha (P27986 whole entry): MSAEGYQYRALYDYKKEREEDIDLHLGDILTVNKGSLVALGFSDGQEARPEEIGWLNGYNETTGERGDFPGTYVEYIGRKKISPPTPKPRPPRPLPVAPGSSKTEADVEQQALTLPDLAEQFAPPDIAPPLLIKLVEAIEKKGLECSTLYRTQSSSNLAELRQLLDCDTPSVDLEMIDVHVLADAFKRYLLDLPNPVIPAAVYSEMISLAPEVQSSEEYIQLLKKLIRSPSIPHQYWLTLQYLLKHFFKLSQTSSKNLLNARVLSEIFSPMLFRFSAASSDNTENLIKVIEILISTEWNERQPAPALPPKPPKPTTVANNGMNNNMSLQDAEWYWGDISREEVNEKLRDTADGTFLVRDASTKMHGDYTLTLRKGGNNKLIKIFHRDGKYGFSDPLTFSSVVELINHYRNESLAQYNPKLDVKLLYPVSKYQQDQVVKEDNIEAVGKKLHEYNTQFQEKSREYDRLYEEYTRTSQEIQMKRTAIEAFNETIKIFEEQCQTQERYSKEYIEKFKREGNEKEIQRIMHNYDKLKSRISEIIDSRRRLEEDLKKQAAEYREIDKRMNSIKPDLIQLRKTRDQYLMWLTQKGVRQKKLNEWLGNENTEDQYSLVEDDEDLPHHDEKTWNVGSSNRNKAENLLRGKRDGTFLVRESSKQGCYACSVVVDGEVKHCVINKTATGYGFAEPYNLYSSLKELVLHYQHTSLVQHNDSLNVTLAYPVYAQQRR
Sequence of PI3-kinase p110-alpha/p85-alpha (P42336 whole entry): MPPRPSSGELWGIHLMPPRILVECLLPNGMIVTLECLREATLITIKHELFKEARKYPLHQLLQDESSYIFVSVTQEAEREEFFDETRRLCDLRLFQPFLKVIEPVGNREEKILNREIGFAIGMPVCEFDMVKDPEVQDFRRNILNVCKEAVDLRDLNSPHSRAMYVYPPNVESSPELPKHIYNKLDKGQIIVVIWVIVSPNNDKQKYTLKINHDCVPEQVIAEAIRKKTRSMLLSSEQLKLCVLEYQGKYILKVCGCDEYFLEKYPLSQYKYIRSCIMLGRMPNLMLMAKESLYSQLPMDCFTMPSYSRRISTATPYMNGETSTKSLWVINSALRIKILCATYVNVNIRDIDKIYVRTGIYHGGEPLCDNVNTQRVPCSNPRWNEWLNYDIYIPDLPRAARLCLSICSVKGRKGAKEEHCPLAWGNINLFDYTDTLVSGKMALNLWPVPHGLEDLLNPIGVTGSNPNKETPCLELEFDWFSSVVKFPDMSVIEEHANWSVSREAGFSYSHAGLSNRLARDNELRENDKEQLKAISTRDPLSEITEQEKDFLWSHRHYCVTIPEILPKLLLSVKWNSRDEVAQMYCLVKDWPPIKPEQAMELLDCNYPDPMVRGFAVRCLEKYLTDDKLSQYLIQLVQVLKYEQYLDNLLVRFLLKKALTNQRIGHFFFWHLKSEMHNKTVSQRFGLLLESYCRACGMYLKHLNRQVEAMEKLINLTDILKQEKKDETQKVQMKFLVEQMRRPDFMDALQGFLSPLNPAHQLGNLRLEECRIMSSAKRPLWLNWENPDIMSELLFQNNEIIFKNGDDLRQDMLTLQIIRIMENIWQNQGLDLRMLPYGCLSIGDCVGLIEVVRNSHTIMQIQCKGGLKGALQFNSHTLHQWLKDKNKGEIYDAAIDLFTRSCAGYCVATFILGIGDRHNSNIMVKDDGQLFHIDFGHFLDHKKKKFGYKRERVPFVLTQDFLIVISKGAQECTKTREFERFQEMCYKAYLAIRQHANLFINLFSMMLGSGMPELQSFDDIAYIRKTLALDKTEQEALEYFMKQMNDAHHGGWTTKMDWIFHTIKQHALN
Sequence of Phosphatidylinositol 4,5-bisphosphate 3-kinase catalytic subunit gamma isoform (P48736 whole entry, canonical isoform): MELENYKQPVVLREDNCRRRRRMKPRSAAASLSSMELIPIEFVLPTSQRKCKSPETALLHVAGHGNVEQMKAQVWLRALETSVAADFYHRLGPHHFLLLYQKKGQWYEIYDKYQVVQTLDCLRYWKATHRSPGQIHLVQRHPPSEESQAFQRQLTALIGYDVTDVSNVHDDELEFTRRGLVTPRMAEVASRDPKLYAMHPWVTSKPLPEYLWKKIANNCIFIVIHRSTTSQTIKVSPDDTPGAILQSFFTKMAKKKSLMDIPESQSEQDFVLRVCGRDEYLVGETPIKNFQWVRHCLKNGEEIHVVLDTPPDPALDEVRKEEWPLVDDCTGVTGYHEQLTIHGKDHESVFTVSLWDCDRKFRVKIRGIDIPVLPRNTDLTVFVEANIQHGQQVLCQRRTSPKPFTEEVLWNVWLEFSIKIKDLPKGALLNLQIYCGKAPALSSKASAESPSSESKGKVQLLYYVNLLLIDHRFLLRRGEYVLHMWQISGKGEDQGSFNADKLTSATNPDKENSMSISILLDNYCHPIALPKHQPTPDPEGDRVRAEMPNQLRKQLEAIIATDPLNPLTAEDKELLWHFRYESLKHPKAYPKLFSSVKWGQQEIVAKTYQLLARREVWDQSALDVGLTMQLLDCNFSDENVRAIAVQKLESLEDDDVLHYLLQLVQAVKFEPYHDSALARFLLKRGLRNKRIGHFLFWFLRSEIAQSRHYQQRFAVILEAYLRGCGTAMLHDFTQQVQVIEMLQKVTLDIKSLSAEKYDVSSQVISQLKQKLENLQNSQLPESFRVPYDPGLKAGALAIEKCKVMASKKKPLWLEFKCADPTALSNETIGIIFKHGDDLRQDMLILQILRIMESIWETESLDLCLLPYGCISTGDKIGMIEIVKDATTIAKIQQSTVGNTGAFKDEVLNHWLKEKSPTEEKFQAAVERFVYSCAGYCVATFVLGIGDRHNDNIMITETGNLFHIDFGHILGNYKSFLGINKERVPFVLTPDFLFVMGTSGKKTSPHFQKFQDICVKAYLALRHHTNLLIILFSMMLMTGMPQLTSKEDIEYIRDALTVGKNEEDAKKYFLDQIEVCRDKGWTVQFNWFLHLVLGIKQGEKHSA
Sequence of PI3K p110 beta/p85 alpha (P27986 whole entry): as the sequence (P27986 whole entry) above
Sequence of PI3K p110 beta/p85 alpha (P42338 whole entry): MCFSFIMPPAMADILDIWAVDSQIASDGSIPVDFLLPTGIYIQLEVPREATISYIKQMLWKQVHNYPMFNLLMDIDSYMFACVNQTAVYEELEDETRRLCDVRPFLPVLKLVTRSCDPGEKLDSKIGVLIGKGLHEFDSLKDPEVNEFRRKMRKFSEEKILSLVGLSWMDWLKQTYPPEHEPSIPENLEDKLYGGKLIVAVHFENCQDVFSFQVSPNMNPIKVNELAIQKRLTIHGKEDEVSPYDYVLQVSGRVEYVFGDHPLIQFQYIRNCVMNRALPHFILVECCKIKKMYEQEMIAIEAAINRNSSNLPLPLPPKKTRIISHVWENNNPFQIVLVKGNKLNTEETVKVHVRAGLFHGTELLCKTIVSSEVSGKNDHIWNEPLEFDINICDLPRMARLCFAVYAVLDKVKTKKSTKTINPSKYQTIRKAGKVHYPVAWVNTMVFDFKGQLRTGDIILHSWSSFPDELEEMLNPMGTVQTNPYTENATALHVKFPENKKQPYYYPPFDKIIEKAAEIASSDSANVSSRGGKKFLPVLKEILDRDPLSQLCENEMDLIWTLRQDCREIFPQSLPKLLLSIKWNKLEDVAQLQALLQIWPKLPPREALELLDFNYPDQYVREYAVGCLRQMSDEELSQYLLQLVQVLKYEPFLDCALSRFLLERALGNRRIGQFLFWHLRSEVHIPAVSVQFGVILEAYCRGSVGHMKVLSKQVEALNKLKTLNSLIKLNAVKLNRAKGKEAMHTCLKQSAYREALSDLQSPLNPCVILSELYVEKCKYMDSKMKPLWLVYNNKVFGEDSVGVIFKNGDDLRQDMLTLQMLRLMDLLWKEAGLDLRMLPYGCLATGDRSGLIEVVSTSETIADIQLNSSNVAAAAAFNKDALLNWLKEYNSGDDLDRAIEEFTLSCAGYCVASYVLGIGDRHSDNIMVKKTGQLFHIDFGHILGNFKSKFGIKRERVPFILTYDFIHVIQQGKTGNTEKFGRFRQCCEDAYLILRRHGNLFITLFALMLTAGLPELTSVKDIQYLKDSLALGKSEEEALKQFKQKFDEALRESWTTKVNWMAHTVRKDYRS

Row | SMILES | IC50 (PC-3) [nM] | IC50 (HCT-116) [nM] | IC50 [4] [nM] | further results
1 | COc1ncc(-c2ccc3ncc(NC(=O)CN4CCOCC4)c(OC)c3c2)cc1NS(=O)(=O)c1ccc(F)cc1F | 80 | 470 | 1.7 | IC50 [1]: 8.4 nM; Vd (Mus musculus): 1 L/kg; IC50 (PI3K p110 beta/p85 alpha): 3.9 nM; MRT [2]: 2.7 h; half-life [3]: 1.6 h; AUC(0-t) [5]: 11700 ng·h/mL; IC50 [6]: 0.87 nM; IC50 [7]: 10 nM; CL/F [8]: 7 mL/min/kg; inhibition (Homo sapiens): Active; Cmax [9]: 2950 ng/mL
2 | COc1ncc(-c2ccc3ncc(NCC4CCCCC4)c(OC)c3c2)cc1NS(=O)(=O)c1ccc(F)cc1F | 9000 | 13600 | 210 | 
3 | COc1ncc(-c2ccc3ncc(NCc4ccc(C(F)(F)F)cc4)c(OC)c3c2)cc1NS(=O)(=O)c1ccc(F)cc1F | 2880 | 3220 | 30 | 
4 | COc1ncc(-c2ccc3ncc(NC(=O)CN4CCOCC4)c(OC)c3c2)cc1NS(=O)(=O)c1ccc(F)cc1 | 1830 | 2830 | 2.7 | 
5 | COc1ncc(-c2ccc3ncc(NC(=O)CN(C)CCO)c(OC)c3c2)cc1NS(=O)(=O)c1ccc(F)cc1F | 2000 | 1790 | 1.3 | 
6 | COc1ncc(-c2ccc3ncc(NC(=O)CN4CCC(O)CC4)c(OC)c3c2)cc1NS(=O)(=O)c1ccc(F)cc1F | 3210 | 1980 | 2 | 
7 | CCNc1cnc2ccc(-c3cnc(OC)c(NS(=O)(=O)c4ccc(F)cc4F)c3)cc2c1OC | 4820 | 1850 | 9.4 | 
8 | COc1ncc(-c2ccc3ncc(NC(=O)C4CCCCC4)c(OC)c3c2)cc1NS(=O)(=O)c1ccc(F)cc1F | 6630 | 4610 | 15 | 
9 | COc1ncc(-c2ccc3ncc(NCC4CCN(S(C)(=O)=O)CC4)c(OC)c3c2)cc1NS(=O)(=O)c1ccc(F)cc1F | 2850 | 1360 | 4.7 | 
10 | COc1ncc(-c2ccc3ncc(NCc4ccccc4)c(OC)c3c2)cc1NS(=O)(=O)c1ccc(F)cc1F | 4320 | 16800 | 36 | 
11 | COc1ncc(-c2ccc3ncc(NC(=O)CN4CCCC(O)C4)c(OC)c3c2)cc1NS(=O)(=O)c1ccc(F)cc1F (stereo unspecified) | 1340 | 1770 | 1.5 | 
12 | COc1ccc(CNc2cnc3ccc(-c4cnc(OC)c(NS(=O)(=O)c5ccc(F)cc5F)c4)cc3c2OC)cc1 | 4520 | 10200 | 27 | 
13 | COc1ncc(-c2ccc3ncc(NC(=O)CN4CCN(C)CC4)c(OC)c3c2)cc1NS(=O)(=O)c1ccc(F)cc1F | 1730 | 1540 | 3.2 | 
14 | Cn1c(=O)n(-c2ccc(C(C)(C)C#N)cc2)c2c3cc(-c4cnc5ccccc5c4)ccc3ncc21 [DACTOLISIB] | 510 | 220 |  | 
15 | COc1ncc(-c2ccc3ncc(NC(=O)CN4CCOCC4)c(OC)c3c2)cc1NS(=O)(=O)c1ccc(C(F)(F)F)cc1 | 3750 | 2520 | 2.26 | 
16 | COc1ncc(-c2ccc3ncc(NCC4CCN(C(C)=O)CC4)c(OC)c3c2)cc1NS(=O)(=O)c1ccc(F)cc1F | 2570 | 1930 | 3.7 | 
17 | COc1ncc(-c2ccc3ncc(NC(C)=O)c(OC)c3c2)cc1NS(=O)(=O)c1ccc(F)cc1F | 1240 | 550 | 8.4 | 
